Bounds are passed on as bounds.

Assay [1] deals with T1, Avi-KRAS G12R (1-169) GppNHp/RAF1 RBD-3xFLAG (52-151) (Homo sapiens, UniProt P01116, G12R).
T1 construct: Avi-KRAS G12R (1-169)
In words: Raf1-KRAS G12R-GppNHP disruption HTRF assay (Biological Example 1). The note with it: KRAS G12R, GppNHp-loaded; class symbols. The format is binding. The procedure, abridged:
(§1)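 First, protein mix in Tris pH 7.5 buffer with NaCl, MgCl2, BSA, Tween and 10% DMSO is incubated 1 h at room temperature. Next, reagent mix is added and incubated a further 1 h at room temperature. Finally, HTRF is read and activity normalized to DMSO.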
A general note: TR-FRET usually uses a lanthanide donor and a delayed reading to cut background.

Assay [2] concerns the target T2, Avi-KRAS WT (1-169) GppNHp/RAF1 RBD-3xFLAG (52-151) (Homo sapiens, UniProt P01116).
T2 construct: Avi-KRAS WT (1-169)
The assay can be described thus: Raf1-KRAS WT-GppNHP disruption HTRF assay (Biological Example 1). The format is binding. The following applies: KRAS WT, GppNHp-loaded; class symbols. In short, it runs like this:
as §1

For assay [3], the target named is T3, Avi-KRAS G12D (2-169) GTP/RAF1 RBD-3xFLAG (51-131) (Homo sapiens, UniProt P01116, G12D).
T3 construct: Avi-KRAS G12D (2-169)
In words: Raf1-KRAS G12D-GTP disruption HTRF assay (Biological Example 3). The format is binding. The note with it: KRAS G12D, GTP-loaded. In short, it runs like this: (§2)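 Each KRAS-GTP/RAF1 RBD complex at 50 nM, with 75 nM 3xFLAG-RAF1 RBD (51-131)-Avi, in 50 mM Tris pH 7.5, 100 mM NaCl, 5 mM MgCl2, 0.1% BSA, 0.01% Tween 20, 10% DMSO. Compounds titrated from 30 μM, 10-point 3x series; 1 h at room temperature with shaking. HTRF read, activity as percent of DMSO.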

Assay [4] deals with T4, Avi-KRAS WT (2-169) GTP/RAF1 RBD-3xFLAG (51-131) (Homo sapiens, UniProt P01116).
T4 construct: Avi-KRAS WT (2-169)
In words: Raf1-KRAS WT-GTP disruption HTRF assay (Biological Example 3). The following applies: KRAS WT, GTP-loaded. The format is binding. The procedure, abridged:
as §2

Assay [5] relates to SW620 cells (KRAS G12V). The assay can be described thus: Cell-based pERK HTRF assay in SW620 cell (Biological Example 4). The procedure, abridged: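 This assay measures inhibition of ERK phosphorylation downstream of KRAS G12V in intact SW620 cells. Compounds are applied for 4 h over nine half-log concentrations starting at 1 μM, and pERK is quantified by HTRF.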
[6] abbreviates: Homo sapiens, SW-620, SW620 (KRAS G12V) cells.
Setting [7] is: Homo sapiens, SW-620, SW620 (KRAS G12V) cells, pERK HTRF, class symbols.

T3 sequence (P01116 2-169 isoform P01116-2 G12D): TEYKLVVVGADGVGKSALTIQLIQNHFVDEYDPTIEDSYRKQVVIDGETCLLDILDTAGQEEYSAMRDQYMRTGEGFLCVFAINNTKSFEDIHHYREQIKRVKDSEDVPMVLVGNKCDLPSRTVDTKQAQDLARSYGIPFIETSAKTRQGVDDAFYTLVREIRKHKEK
T2 sequence (P01116 1-169 isoform P01116-2): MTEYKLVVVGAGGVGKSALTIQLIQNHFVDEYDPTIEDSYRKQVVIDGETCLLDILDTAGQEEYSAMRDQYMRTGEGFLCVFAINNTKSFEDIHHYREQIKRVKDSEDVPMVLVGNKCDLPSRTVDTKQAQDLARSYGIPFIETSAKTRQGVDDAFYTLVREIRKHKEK
T4 sequence (P01116 2-169 isoform P01116-2): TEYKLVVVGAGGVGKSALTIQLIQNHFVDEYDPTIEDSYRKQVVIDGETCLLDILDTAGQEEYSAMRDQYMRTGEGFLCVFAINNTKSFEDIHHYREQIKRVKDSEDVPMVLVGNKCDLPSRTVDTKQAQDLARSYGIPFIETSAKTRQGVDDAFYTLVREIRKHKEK
T1 sequence (P01116 1-169 isoform P01116-2 G12R): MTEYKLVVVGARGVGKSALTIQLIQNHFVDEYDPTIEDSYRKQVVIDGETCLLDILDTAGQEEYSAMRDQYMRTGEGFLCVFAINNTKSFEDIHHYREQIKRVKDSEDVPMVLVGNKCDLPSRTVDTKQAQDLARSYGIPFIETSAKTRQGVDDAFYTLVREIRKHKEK

What is called IC50 is the midpoint of a concentration-inhibition curve. Read a low IC50 as inhibition by little substance. For `N#Cc1c(N)sc2c(F)ccc(-c3c(C(F)(F)F)cc4c(N5CCn6nc(C(=O)N7CCOCC7)cc6C5)nc(OCC56CCCN5CC(F)C6)nc4c3F)c12` (stereo not drawn) [Compound 646], the IC50 in assay [1] is less than 100 nM; in assay [2], 100 to 1000 nM; in assay [3] it was 100 to 1000 nM; in assay [4], 1000 to 10000 nM; in assay [5] (setting [6]) it was less than 100 nM; in assay [5] (setting [7]), less than 100 nM.

On to `CCN(c1nc(OC[C@@]23CCCN2C[C@H](F)C3)nc2c(F)c(-c3ccc(F)c4sc(N)c(C#N)c34)c(C(F)(F)F)cc12)[C@H]1CCN(C(=O)C2C[C@@H]2F)C1` (stereo partly drawn) [Compound 692], for which the IC50 in assay [1] was less than 100 nM; in assay [2], less than 100 nM; in assay [3], not above 100 nM; in assay [4], not above 100 nM; in assay [5] (setting [6]), less than 100 nM; in assay [5] (setting [7]) it was less than 100 nM.

`N#Cc1c(N)sc2c(F)ccc(-c3c(C(F)(F)F)cc4c(N(C5CC5)[C@H]5CCS(=O)(=O)C5)nc(OC[C@@]56CCCN5C[C@H](F)C6)nc4c3F)c12` [Compound 702]: the IC50 was 1000 to 10000 nM in assay [1]; 1000 to 10000 nM in assay [2]; 1000 to 10000 nM in assay [3]; more than 10000 nM in assay [4]; 100 to 1000 nM in assay [5] (setting [6]); 100 to 1000 nM in assay [5] (setting [7]).

As to `CCN(c1nc(OC[C@]23CCCN2C[C@H](F)C3)nc2c(F)c(-c3ccc(F)c4sc(N)c(C#N)c34)c(C(F)(F)F)cc12)[C@H]1CCN(C(=O)C(C)C)C1` [Compound 705], the IC50 is less than 100 nM in assay [1]; less than 100 nM in assay [2]; 100 to 1000 nM in assay [3]; 100 to 1000 nM in assay [4]; less than 100 nM in assay [5] (setting [6]); less than 100 nM in assay [5] (setting [7]).

Consider `CCN(c1nc(OC[C@@H]2C[C@@H](OC)CN2C)nc2c(F)c(-c3ccc(F)c4sc(N)c(C#N)c34)c(C(F)(F)F)cc12)[C@H]1CCN(C(=O)C(C)C)C1` [Compound 706], for which the IC50 in assay [1] is 100 to 1000 nM; in assay [2] it was 100 to 1000 nM; in assay [3] it was 100 to 1000 nM; in assay [4], 1000 to 10000 nM; in assay [5] (setting [6]) it was less than 100 nM; in assay [5] (setting [7]), less than 100 nM.

Turning to `CCN(c1nc(OCC23CCCN2CC(F)C3)nc2c(F)c(-c3ccc(F)c4sc(N)c(C#N)c34)c(C(F)(F)F)cc12)C1CC(C)N(C(=O)C2CC2(F)F)C1` (stereo not drawn) [Compound 732], the half-inhibitory concentration (IC50) was less than 100 nM in assay [1]; 100 to 1000 nM in assay [2]; 100 to 1000 nM in assay [3]; 100 to 1000 nM in assay [4]; less than 100 nM in assay [5] (SW620 (KRAS G12V) cells); less than 100 nM in assay [5] (SW620 (KRAS G12V) cells, pERK HTRF, class symbols).

As to `Cc1c(C(=O)N2CCOCC2)nn2c1CN(c1nc(OCC34CCCN3CC(F)C4)nc3c(F)c(-c4ccc(F)c5sc(N)c(C#N)c45)c(C(F)(F)F)cc13)CC2` (stereo not drawn) [Compound 741], the IC50 in assay [1] was 100 to 1000 nM; in assay [2] it was 100 to 1000 nM; in assay [3] it was 100 to 1000 nM; in assay [4] it was 100 to 1000 nM; in assay [5] (setting [6]) it was less than 100 nM; in assay [5] (setting [7]), less than 100 nM.

`Cc1c(C(=O)N2CCCC2)nn2c1CN(c1nc(OCC34CCCN3CC(F)C4)nc3c(F)c(-c4ccc(F)c5sc(N)c(C#N)c45)c(C(F)(F)F)cc13)CC2` (stereo not drawn) [Compound 744]: the IC50 in assay [1] is 100 to 1000 nM; in assay [2], 100 to 1000 nM; in assay [3], 100 to 1000 nM; in assay [4], 100 to 1000 nM; in assay [5] (setting [6]) it was less than 100 nM; in assay [5] (setting [7]) it was less than 100 nM.

For the origin of these results see patent publication US20260042764A1, “COMPOSITIONS AND METHODS FOR INHIBITION OF KRAS” (TheRas, Inc., priority 2022, published 2026).
